Like-named read-outs stand apart in the source and are kept apart here.
Columns and labels:
[1] = cited from earlier work
HRV = system: HRV; design: method as in PMID 20066739, PMID 21536800, PMID 23295352, PMID 23633597; details: cited from earlier work
EV71 [2] = details: cited from earlier work
EV71-luciferase virus [3] = test: Time-of-addition assay with EV71-luciferase virus in RD cells; type: cell-based; details: −6 to 10 hpi, FOPMC 5 μM, FIOMC 5 μM, GPP3 1 μM
EV71-B = test: Antiviral activity by qRT-PCR in RD cells, EV71-B; type: cell-based; details: Enterovirus A
Description: (§1) The viral genome replication inhibition in host cells after treatment with FOPMC and FIOMC was monitored by EV71 genotype C Fuyang virus. Briefly, RD cells were cultured at 1.5 × 10^5 per well at 37°C for 24 h and then incubated with gradient-diluted FOPMC, FIOMC, and virus. The intracellular RNAs were extracted using TRIzol (TransGen, China) after 24 hpi. The real-time quantitative PCR (qRT-PCR) assays were performed with a SYBR RT-PCR kit (Bio-Rad, USA) for the EV71 5′ […] region (UTR) and the host GAPDH. The transcript copies of EV71 5′ UTR and GAPDH were calculated using the threshold cycle (ΔΔCT) method ([35]).
(§2) To evaluate the antiviral effect of FOPMC and FIOMC on various viral strains, we measured the EC50s of these two inhibitors on five virus strains. RD cells were treated with FOPMC/FIOMC (0.003 to 50 μM) and each viral strain for 2 h. The antiviral activity was conducted by qRT-PCR according to the method described above.

CVA16 = test: Antiviral activity by qRT-PCR in RD cells, CVA16; type: cell-based, coxsackievirus A16; details: Enterovirus A
Description: as §1, §2

EV71 VP1 = test: Expression of EV71 VP1 in RD cells; type: cell-based; details: GAPDH invariable
RD cells = test: Cytotoxicity (CellTiter-Glo) on RD cells; type: cell-based, human; details: even at 200 μM, 48 h
Description: (§3) Determination of the cytotoxicity of FOPMC and FIOMC was performed on three cell lines using a CellTiter-Glo kit (Promega, USA). Briefly, RD, VeroE6, and HEK-293T cells were treated with gradient dilutions of […] (from 0.78 to 200 μM) for 48 h. CellTiter-Glo reagents were applied to evaluate the cells' viability by a microplate reader.

[4] = cited from earlier work; remark: listed apart in the source
VeroE6 cells = test: Cytotoxicity (CellTiter-Glo) on VeroE6 cells; type: cell-based; details: even at 200 μM, 48 h
Description: as §3

[5] = system: EV71 genotype C Fuyang virus; test: qRT-PCR of viral genome replication, EV71 Fuyang virus in RD cells; type: cell-based; details: Enterovirus A, 24 hpi
Description: as §1

EV71 [6] = test: Selection of resistant virus by continuous culture of EV71; type: cell-based; details: EV71 cultured for 20 rounds, sequence analyses
EV71-GFP = test: Phenotype assay with EV71-GFP reporter virus in RD cells; type: cell-based; details: 0.16 to 20 μM, 24 h
Description: RD cells (3 × 10^4 per well) were cultured in 96-well plates overnight. Diluted compounds (0.16 to 20 μM) and EV71-GFP reporter virus were added to RD cells. After 24 hpi, the GFP was monitored using confocal microscopy (Olympus, Japan).

CVB3 = test: Antiviral activity by qRT-PCR in RD cells, CVB3; type: cell-based, coxsackievirus B3; details: Enterovirus B
Description: as §1, §2

HEK-293T cells = test: Cytotoxicity (CellTiter-Glo) on HEK-293T cells; type: cell-based; details: even at 200 μM, 48 h
Description: as §3

five viral strains = test: Antiviral activity on five viral strains (summary in discussion); type: cell-based; details: read-out: EC50s depending on the specific virus
Description: as §2

EV71-luciferase virus [7] = test: EC50 with EV71-luciferase virus on VeroE6 cells; type: cell-based; details: Enterovirus A, EV71, Vero C1008, 24 h
Description: (§4) One hundred microliters each of RD (3 × 10^5 cells/ml), VeroE6 (3 × 10^5 cells/ml), and HEK-293T cells (2 × 10^5 cells/ml) was cultured overnight. Each 96-well plate of cells was treated with EV71-luciferase virus and diluted FOPMC/FIOMC (diluted from 3 nM to 20 μM) for 24 h. The luciferase signals were tested using the firefly luciferase kit (Promega, USA). All of the EC50s were profiled by Graph Pad Prism 7.0.

EV71-C = test: Antiviral activity by qRT-PCR in RD cells, EV71-C; type: cell-based; details: Enterovirus A
Description: as §1, §2

EV71-luciferase virus [8] = test: EC50 with EV71-luciferase virus on HEK-293T cells; type: cell-based; details: Enterovirus A, EV71, HEK-293T, 24 h
Description: as §4

EV71 3C^pro [9] = target: T1, EV71 3C^pro (Human enterovirus 71, UniProt Q66478); test: Hydrolytic activity inhibition of EV71 3C^pro on precursor 3BC (SDS-PAGE); type: biochemical; details: 100 μM 3C^pro, molar ratio 1:5, GST-3BC-C147A 50 μM
T1 construct: The EV71 3C^pro plasmid was amplified and linked into a pET-28a vector; 6xHis; made in house; host or cells: Escherichia coli
Description: To ascertain whether FOPMC and FIOMC inactivated EV71 3C^pro to hydrolyze the precursor 3BC, the fusion protein GST-3BC with a catalytic central residue C147A mutation was expressed. A 100 μM concentration of EV71 3C^pro and FOPMC/FIOMC (at a molar ratio of 1:5) was incubated at 30°C for 2 h. GST-3BC (50 μM) protein was added for another 4 h, and the reagents were analyzed using SDS-PAGE.

EV71 3C^pro [10] = target: T1, EV71 3C^pro; test: Inhibitor constant (Ki) enzymatic FRET assay; type: biochemical; details: 0.5 μM EV71 3C^pro, 100 μM peptide, 2 h
Description: The inhibitor constants (Kis) were determined by fluorescence resonance energy transfer (FRET) using NMA-IEALFQGPPK(DNP)FR peptide. The assays were performed with 50 mM Tris-HCl–150 mM NaCl (pH 7.0) with 0.5 μM EV71 3C^pro and gradient-diluted FOPMC/FIOMC. Subsequently, 100 μM each peptide was hydrolyzed for 2 h. The fluorescence signals were monitored at a microplate reader (Perkin Elmer, USA).

EV71-luciferase virus [11] = test: EC50 with EV71-luciferase virus on RD cells; type: cell-based; details: Enterovirus A, 24 h
Description: as §4

EV71-A = test: Antiviral activity by qRT-PCR in RD cells, EV71-A; type: cell-based; details: Enterovirus A
Description: as §1, §2

pEV71-replicon RNA = pEV71-replicon RNA assay in RD cells; type: cell-based, EV71; details: RD cells transfected with pEV71-replicon RNA, 5 μM
Description: RD cells (3 × 10^4 per well) were treated with FOPMC (5 μM), FIOMC (5 μM), GPP3 (1 μM), NK-1.8k (2 μM), and EV71-luciferase virus, respectively. Another plate of RD cells was treated with the same concentrations of the four inhibitors and transfected with pEV71-replicon RNA. After 24 hpi, the luciferase activity was determined using Bright-Glo luciferase substrate (Promega, USA).

EV-D68 = system: EV-D68; design: method as in PMID 25554786; details: cited from earlier work

## Cc1cc(C(=O)NC(Cc2ccc(F)cc2)C(=O)NC(CC2CCCNC2=O)C(O)C#N)no1 [(R)-1, reference compound]
[1]
  half-life [t1/2] in human plasma: 11 min

## CCOC(=O)/C=C/[C@H](C[C@@H]1CCNC1=O)NC(=O)[C@@H](CC(=O)[C@@H](NC(=O)c1cc(C)on1)C(C)C)Cc1ccc(F)cc1 [AG7088]
HRV
  EC50: 13 nM
EV71 [2]; EV71
  EC50: 1670 nM

## Cc1cc(C(=O)NC(Cc2ccc(F)cc2)C(=O)NC(CC2CCCNC2=O)C2OC(=O)N(C(C)C)C2=N)no1 (stereo not shown) [FIOMC]
EV71-luciferase virus [3]
  inhibitory effect by time of addition: valid inhibitory effects regardless of the time
EV71-B
  EC50: 102 ± 9 nM
CVA16
  EC50: 125 ± 2 nM
EV71 VP1
  expression of EV71 VP1: inhibited
RD cells
  Cytotoxicity: no apparent cytotoxic effect
[4]
  t1/2 in mouse plasma: exceed 120 min
VeroE6 cells
  Cytotoxicity: no apparent cytotoxic effect
[5]
  EC50: 67 ± 1 nM
EV71 [6]
  resistance mutation after continuous culture: no mutation of EV71 virus
EV71-GFP
  replication of EV71-GFP in phenotype screen: positive results
CVB3
  EC50: 80 ± 4 nM
HEK-293T cells
  Cytotoxicity: no apparent cytotoxic effect
Five viral strains
  EC50: 80 to 125 nM
EV71-luciferase virus [7]
  EC50: 104 ± 8 nM
EV71-C
  EC50: 75 ± 3 nM
EV71-luciferase virus [8]
  EC50: 93 ± 7 nM
EV71 3C^pro [9]
  hydrolysis of 3BC by 3C^pro: distinctly restrained the hydrolysis
[1]
  half-life [t1/2] in human plasma: exceed 120 min
EV71 3C^pro [10]
  Ki: 33 ± 8 nM
EV71-luciferase virus [11]
  EC50: 92 ± 3 nM
EV71-A
  EC50: 96 ± 1 nM
pEV71-replicon RNA
  effect on replicon: impacted the virus replication stage

## CCCN1C(=N)C(C(CC2CCCNC2=O)NC(=O)C(Cc2ccc(F)cc2)NC(=O)c2cc(C)on2)OC1=O (stereo not shown) [FOPMC]
EV71-luciferase virus [3]
  inhibitory effect by time of addition: valid inhibitory effects regardless of the time
EV71-B
  EC50: 135 ± 4 nM
CVA16
  EC50: 217 ± 14 nM
EV71 VP1
  expression of EV71 VP1: inhibited
RD cells
  Cytotoxicity: no apparent cytotoxic effect
[4]
  t1/2 in mouse plasma: exceed 120 min
VeroE6 cells
  Cytotoxicity: no apparent cytotoxic effect
[5]
  EC50: 123 ± 4 nM
EV71 [6]
  resistance mutation after continuous culture: no mutation of EV71 virus
EV71-GFP
  replication of EV71-GFP in phenotype screen: positive results
CVB3
  EC50: 210 ± 5 nM
HEK-293T cells
  Cytotoxicity: no apparent cytotoxic effect
EV71-luciferase virus [7]
  EC50: 202 ± 15 nM
EV71-C
  EC50: 128 ± 9 nM
EV71-luciferase virus [8]
  EC50: 299 ± 28 nM
EV71 3C^pro [9]
  hydrolysis of 3BC by 3C^pro: distinctly restrained the hydrolysis
[1]
  half-life [t1/2] in human plasma: exceed 120 min
EV71 3C^pro [10]
  Ki: 83 ± 1 nM
EV71-luciferase virus [11]
  EC50: 244 ± 12 nM
EV71-A
  EC50: 115 ± 2 nM
pEV71-replicon RNA
  effect on replicon: impacted the virus replication stage

## O=c1c(O)c(-c2ccc(O)c(O)c2)oc2cc(O)ccc12 [Fisetin]
EV71 [2]; anti-EV71 activity
  EC50: 85000 nM

## CCON=Cc1ccc(OCCC(C)CCN2CCN(c3ccncc3)C2=O)cc1 (stereo not shown) [GPP3, reference compound]
EV71-luciferase virus [3]
  inhibitory effect by time of addition: dramatically decreased from 4 hpi

## O=c1cc(-c2ccc(O)c(O)c2)oc2cc(O[C@@H]3O[C@H](CO)[C@@H](O)[C@H](O)[C@H]3O)cc(O)c12 [Luteoloside]
EV71 [2]; cytopathy caused by EV71 infection
  EC50: 430000 nM

## Cc1cc(CCCOc2c(C)cc(-c3noc(C(F)(F)F)n3)cc2C)on1 [pleconaril]
EV-D68
  EC50: 430 nM

## O=c1c(O)c(-c2ccc(O)c(O)c2)oc2cc(O)cc(O)c12 [quercetin]
EV71 [2]; EV71
  EC50: 12100 nM

## C[C@@H]1O[C@@H](OC[C@H]2O[C@@H](Oc3c(-c4ccc(O)c(O)c4)oc4cc(O)cc(O)c4c3=O)[C@H](O)[C@@H](O)[C@@H]2O)[C@H](O)[C@H](O)[C@H]1O [rutin]
EV71 [2]; anti-EV71 activity
  EC50: 110000 nM
